Like-named read-outs stand apart in the source and are kept apart here.
Columns and labels:
bacterial cells = details: preservative with TENT, PCR or plating, FIG. 59A/59B
bacteria = assay: Bactericidal preservatives added to bacteria, cell counts by flow cytometry or cell plating; format: cell-based; details: cell counts over 3 days, FIG. 60
[1] = high concentration culture, 4.5×10^6 cells
[2] = low concentration culture, 8.6×10^4 cells

| SMILES | viability of bacteria (bacterial cells; [1]) | viability of bacteria (bacterial cells; [2]) | viability of bacteria over time (bacteria) |
| --- | --- | --- | --- |
| OCCOc1ccccc1 [2-phenoxyethanol] | reduce the viability of bacteria | reduce the viability of bacteria |  |
| O=C(NCO)N(CO)C1(CO)C(=O)NC(=O)N1CO (centres unmarked) [diazolidinyl urea] |  |  | reduced the viability of bacteria |
| C/C=C/C=C/C(=O)O [sorbic acid] | reduce the viability of bacteria | reduce the viability of bacteria |  |
| C[CH2][Hg][S]c1ccccc1C(=O)[O-].[Na+] [thimerosal] | reduce the viability of bacteria | reduce the viability of bacteria | reduced the viability of bacteria |

From patent publication US10588608B2, “Sampling systems and related materials and methods” (Progenity Inc., priority 2016, dated 2020)
